# Target: human PD-L1 (Homo sapiens (Human), UniProt Q9NZQ7)
# Assay: T cell activation luciferase reporter cell culture system (T Cell Activation Assay)
# Type: cell-based
# Details: luciferase reporter assay; PD-L1 aAPC/CHO-K1 cells with PD-1 effector Jurkat T cells
# human PD-L1, sequence (Q9NZQ7 19-290): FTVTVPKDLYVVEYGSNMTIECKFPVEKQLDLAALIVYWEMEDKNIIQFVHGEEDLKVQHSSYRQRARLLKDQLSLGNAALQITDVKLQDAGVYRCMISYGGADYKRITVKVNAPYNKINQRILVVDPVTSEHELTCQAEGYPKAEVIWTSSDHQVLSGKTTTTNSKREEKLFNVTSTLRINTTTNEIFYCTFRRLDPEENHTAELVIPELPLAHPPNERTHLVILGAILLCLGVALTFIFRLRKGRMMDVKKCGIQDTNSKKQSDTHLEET
row,SMILES,EC50 [nM]
1,"COc1nc(-c2cccc(-c3ccnc(-c4cc(OC)c5nc(CN[C@H]6CC[C@H](O)CC6)cn5c4)c3Cl)c2Cl)ccc1CNC[C@@H]1CCC(=O)N1 [Example 384, (S)-5-((((6-(2-Chloro-3-(3-chloro-2-(2-((((1r,4r)-4-hydroxycyclohexyl)amino)methyl)-8-methoxyimidazo[1,2-a]pyridin-6-yl)pyridin-4-yl)phenyl)-2-methoxypyridin-3-yl)methyl)amino)methyl)pyrrolidin-2-one]",70
2,"COc1cc(-c2nccc(-c3cccc(-c4ccc(CN[C@H]5C[C@](C)(O)C5)c(OC)n4)c3Cl)c2Cl)ccc1CN[C@H]1C[C@](C)(O)C1 [Example 385, (1r,3r)-3-(((6-(2-Chloro-3-(3-chloro-2-(4-((((1r,3r)-3-hydroxy-3-methylcyclobutyl)amino)methyl)-3-methoxyphenyl)pyridin-4-yl)phenyl)-2-methoxypyridin-3-yl)methyl)amino)-1-methylcyclobutan-1-ol]",17.8
3,"COc1cc(-c2nccc(-c3cccc(-c4ccc(CN5CC6(COC6)C5)c(OC)n4)c3Cl)c2Cl)ccc1CN1CC2(COC2)C1 [Example 387, 6-((6-(3-(2-(4-((2-Oxa-6-azaspiro[3.3]heptan-6-yl)methyl)-3-methoxyphenyl)-3-chloropyridin-4-yl)-2-chlorophenyl)-2-methoxypyridin-3-yl)methyl)-2-oxa-6-azaspiro[3.3]heptane]",8.22
4,"COc1cc(-c2nccc(-c3cccc(-c4ccc([C@H](C)N)c(OC)n4)c3Cl)c2Cl)ccc1[C@H](C)N [Example 393, (S)-1-(6-(3-(2-(4-((S)-1-Aminoethyl)-3-methoxyphenyl)-3-chloropyridin-4-yl)-2-chlorophenyl)-2-methoxypyridin-3-yl)ethan-1-amine]",416
5,"CNCc1ccc(-c2nccc(-c3cccc(-c4ccc(CNC)c(OC)n4)c3C)c2Cl)cc1OC [Example 395, 1-(6-(3-(3-Chloro-2-(3-methoxy-4-((methylamino)methyl)phenyl)pyridin-4-yl)-2-methylphenyl)-2-methoxypyridin-3-yl)-N-methylmethanamine]",81.8
6,"COc1cc(-c2nccc(-c3cccc(-c4ccc(CN5CC6(CCC(=O)N6)C5)c(OC)n4)c3Cl)c2Cl)ccc1CN1CCC(NC(C)=O)CC1 [Example 401, N-(1-(4-(3-Chloro-4-(2-chloro-3-(6-methoxy-5-((6-oxo-2,5-diazaspiro[3.4]-octan-2-yl)methyl)pyridin-2-yl)phenyl)pyridin-2-yl)-2-methoxybenzyl)piperidin-4-yl)acetamide]",20.6
7,"COc1cc(-c2nccc(-c3cccc(-c4ccc(CN5CC6(C5)CN(C(C)=O)C6)c(OC)n4)c3Cl)c2Cl)ccc1CN1CCC(NC(C)=O)CC1 [Example 402, N-(1-(4-(4-(3-(5-((6-acetyl-2,6-diazaspiro[3.3]heptan-2-yl)methyl)-6-methoxypyridin-2-yl)-2-chlorophenyl)-3-chloropyridin-2-yl)-2-methoxybenzyl)piperidin-4-yl)acetamide]",44.6
8,"COc1cc(-c2nccc(-c3cccc(-c4ccc(CNC[C@@H]5CCC(=O)N5)c(OC)n4)c3Cl)c2Cl)ccc1CN1CCC(NC(C)=O)CC1 [Example 403, (S)—N-(1-(4-(3-Chloro-4-(2-chloro-3-(6-methoxy-5-((((5-oxopyrrolidin-2-yl)methyl)amino)methyl)pyridin-2-yl)phenyl)pyridin-2-yl)-2-methoxybenzyl)piperidin-4-yl)acetamide]",18.9
9,"COc1cc(-c2nccc(-c3cccc(-c4ccc(CN5CC6(CNC(=O)C6)C5)c(OC)n4)c3C)c2Cl)ccc1CN1CC2(CNC(=O)C2)C1 [Example 408, 2-((6-(3-(3-chloro-2-(3-methoxy-4-((7-oxo-2,6-diazaspiro[3.4]octan-2-yl)methyl)phenyl)pyridin-4-yl)-2-methylphenyl)-2-methoxypyridin-3-yl)methyl)-2,6-diazaspiro[3.4]octan-7-one]",39.4
10,"COc1cc(-c2nccc(-c3cccc(-c4ccc(CN5CC6(C5)CN(C(C)=O)C6)c(OC)n4)c3C)c2Cl)ccc1CN1CC2(C1)CN(C(C)=O)C2 [Example 409, 1-(6-((6-(3-(2-(4-((6-acetyl-2,6-diazaspiro[3.3]heptan-2-yl)methyl)-3-methoxyphenyl)-3-chloropyridin-4-yl)-2-methylphenyl)-2-methoxypyridin-3-yl)methyl)-2,6-diazaspiro[3.3]heptan-2-yl)ethan-1-one]",274
11,"COc1cc(-c2nccc(-c3cccc(-c4ccc(CN[C@H]5CC[C@@H](O)CC5)c(OC)n4)c3Cl)c2Cl)ccc1CN[C@H]1CC[C@@H](O)CC1 [Example 410, (1s,4s)-4-(((6-(2-Chloro-3-(3-chloro-2-(4-((((1s,4s)-4-hydroxycyclohexyl)amino)methyl)-3-methoxyphenyl)pyridin-4-yl)phenyl)-2-methoxypyridin-3-yl)methyl)amino)cyclohexan-1-ol]",46.3
12,"COc1cc(-c2nccc(-c3cccc(-c4ccc(CN5CCOCC5)c(OC)n4)c3Cl)c2Cl)ccc1CN1CCOCC1 [Example 411, 4-((6-(2-Chloro-3-(3-chloro-2-(3-methoxy-4-(morpholinomethyl)phenyl)pyridin-4-yl)phenyl)-2-methoxypyridin-3-yl)methyl)morpholine]",≥ 10000
13,"COc1cc(-c2nccc(-c3cccc(-c4ccc(CN5CCC(O)CC5)c(OC)n4)c3Cl)c2Cl)ccc1CN1CCC(O)CC1 [Example 412, 1-((6-(2-Chloro-3-(3-chloro-2-(4-((4-hydroxypiperidin-1-yl)methyl)-3-methoxyphenyl)pyridin-4-yl)phenyl)-2-methoxypyridin-3-yl)methyl)piperidin-4-ol]",15.7
14,"COc1cc(-c2nccc(-c3cccc(-c4ccc(CNC5CCN(C)C(=O)C5)c(OC)n4)c3Cl)c2Cl)ccc1CNC1CCN(C)C(=O)C1 (centres unmarked) [Example 418, 4-(((6-(2-Chloro-3-(3-chloro-2-(3-methoxy-4-(((1-methyl-2-oxopiperidin-4-yl)amino)methyl)phenyl)pyridin-4-yl)phenyl)-2-methoxypyridin-3-yl)methyl)amino)-1-methylpiperidin-2-one]",11.8

# Other lines, results leading:
row,EC50 [nM],SMILES
1,38.5,"COc1cc(-c2nccc(-c3cccc(-c4ccc(CN5CC[C@H](C(=O)O)C5)c(OC)n4)c3Cl)c2Cl)ccc1CNC1CCN(C(C)=O)CC1 [Example 388, (S)-1-((6-(3-(2-(4-(((1-acetylpiperidin-4-yl)amino)methyl)-3-methoxyphenyl)-3-chloropyridin-4-yl)-2-chlorophenyl)-2-methoxypyridin-3-yl)methyl)pyrrolidine-3-carboxylic acid]"
2,56.6,"COc1cc(-c2nccc(-c3cccc(-c4ccc(CNC5CCN(C(C)=O)CC5)c(OC)n4)c3Cl)c2Cl)ccc1CNCCC(=O)O [Example 390, 3-((4-(4-(3-(5-(((1-acetylpiperidin-4-yl)amino)methyl)-6-methoxypyridin-2-yl)-2-chlorophenyl)-3-chloropyridin-2-yl)-2-methoxybenzyl)amino)propanoic acid]"
3,18,"COc1cc(-c2nccc(-c3cccc(-c4ccc(CNC5CCOCC5)c(OC)n4)c3Cl)c2Cl)ccc1CNC1CCN(C(C)=O)CC1 [Example 391, 1-(4-((4-(3-chloro-4-(2-chloro-3-(6-methoxy-5-(((tetrahydro-2H-pyran-4-yl)amino)methyl)pyridin-2-yl)phenyl)pyridin-2-yl)-2-methoxybenzyl)amino)piperidin-1-yl)ethan-1-one]"
4,17.6,"COc1cc(-c2nccc(-c3cccc(-c4ccc(CNC5CCN(C(C)=O)CC5)c(OC)n4)c3Cl)c2Cl)ccc1CNC1CCOCC1 [Example 392, 1-(4-(((6-(2-chloro-3-(3-chloro-2-(3-methoxy-4-(((tetrahydro-2H-pyran-4-yl)amino)methyl)phenyl)pyridin-4-yl)phenyl)-2-methoxypyridin-3-yl)methyl)amino)piperidin-1-yl)ethan-1-one]"
5,22.2,"COc1nc(-c2cccc(-c3ccnc(-c4ccc(CNC5CCN(C(C)=O)CC5)c(OC(F)F)c4)c3Cl)c2Cl)ccc1CNC1CCN(C(C)=O)CC1 [Example 394, 1-(4-(((6-(3-(2-(4-(((1-Acetylpiperidin-4-yl)amino)methyl)-3-(difluoromethoxy)phenyl)-3-chloropyridin-4-yl)-2-chlorophenyl)-2-methoxypyridin-3-yl)methyl)amino)piperidin-1-yl)ethan-1-one]"
6,23.9,"COc1cc(-c2nccc(-c3cccc(-c4ccc(CNC5CCN(C(C)=O)CC5)c(OC)n4)c3Cl)c2C#N)ccc1CNC1CCN(C(C)=O)CC1 [Example 404, 2-(4-(((1-Acetylpiperidin-4-yl)amino)methyl)-3-methoxyphenyl)-4-(3-(5-(((1-acetylpiperidin-4-yl)amino)methyl)-6-methoxypyridin-2-yl)-2-chlorophenyl)nicotinonitrile]"
7,62.7,"COc1cc(-c2nccc(-c3cccc(-c4ccc(CNC5CCN(C(C)=O)CC5)c(OC)n4)c3Cl)c2Cl)ccc1CN1CCC(C)(N)CC1 [Example 406, 1-(4-(((6-(3-(2-(4-((4-Amino-4-methylpiperidin-1-yl)methyl)-3-methoxyphenyl)-3-chloropyridin-4-yl)-2-chlorophenyl)-2-methoxypyridin-3-yl)-methyl)-amino)piperidin-1-yl)ethan-1-one]"
8,20,"COc1cc(-c2nccc(-c3cccc(-c4ccc(CNC5CCN(C(C)=O)CC5)c(OC)n4)c3Cl)c2Cl)ccc1CNC[C@H]1CNC(=O)C1 [Example 407, (S)-4-(((4-(4-(3-(5-(((1-Acetylpiperidin-4-yl)amino)methyl)-6-methoxypyridin-2-yl)-2-chlorophenyl)-3-chloropyridin-2-yl)-2-methoxybenzyl)amino)methyl)pyrrolidin-2-one]"
9,19.5,"COc1cc(-c2nccc(-c3cccc(-c4ccc(CNC5CCN(C(=O)N(C)C)CC5)c(OC)n4)c3Cl)c2Cl)ccc1CNC1CCN(C(=O)N(C)C)CC1 [Example 419, 4-(((6-(2-Chloro-3-(3-chloro-2-(4-(((1-(dimethylcarbamoyl)piperidin-4-yl)amino)methyl)-3-methoxyphenyl)pyridin-4-yl)phenyl)-2-methoxypyridin-3-yl)methyl)amino)-N,N-dimethylpiperidine-1-carboxamide]"
